In ChEMBL document CHEMBL4004849, “Tetrazolylmethyl quinolines: Design, docking studies, synthesis, anticancer and antifungal analyses” (2017):
≈ marks a conversion by molar mass, not a printed value. Calls of active or inactive are those of the source. No cut-off for these calls is given here.

Columns and labels:
Assay type in all cases: functional
[1] = tested on: KM12; assay: Growth inhibition of human KM12 cells at 10^-5 M incubated for 48 hrs by sulforhodamine B assay relative to control
[2] = tested on: Malme-3M; assay: Growth inhibition of human MALME-3M cells at 10^-5 M incubated for 48 hrs by sulforhodamine B assay relative to control
[3] = tested on: SN12C; assay: Growth inhibition of human SN12C cells at 10^-5 M incubated for 48 hrs by sulforhodamine B assay relative to control
[4] = tested on: SNB-19; assay: Growth inhibition of human SNB19 cells at 10^-5 M incubated for 48 hrs by sulforhodamine B assay relative to control
[5] = tested on: SF-295; assay: Growth inhibition of human SF295 cells at 10^-5 M incubated for 48 hrs by sulforhodamine B assay relative to control
[6] = tested on: NCI-H23; assay: Growth inhibition of human NCI-H23 cells at 10^-5 M incubated for 48 hrs by sulforhodamine B assay relative to control
[7] = tested on: ACHN; assay: Growth inhibition of human ACHN cells at 10^-5 M incubated for 48 hrs by sulforhodamine B assay relative to control
[8] = tested on: OVCAR-3; assay: Growth inhibition of human OVCAR3 cells at 10^-5 M incubated for 48 hrs by sulforhodamine B assay relative to control
[9] = tested on: BT-549; assay: Growth inhibition of human BT549 cells at 10^-5 M incubated for 48 hrs by sulforhodamine B assay relative to control
[10] = tested on: MDA-MB-468; assay: Growth inhibition of human MDA-MB-468 cells at 10^-5 M incubated for 48 hrs by sulforhodamine B assay relative to control
[11] = tested on: SW-620; assay: Growth inhibition of human SW620 cells at 10^-5 M incubated for 48 hrs by sulforhodamine B assay relative to control
[12] = tested on: MDA-MB-231; assay: Growth inhibition of human MDA-MB-231/ATCC cells at 10^-5 M incubated for 48 hrs by sulforhodamine B assay relative to control
[13] = tested on: UACC-257; assay: Growth inhibition of human UACC257 cells at 10^-5 M incubated for 48 hrs by sulforhodamine B assay relative to control
[14] = tested on: HCT-15; assay: Growth inhibition of human HCT15 cells at 10^-5 M incubated for 48 hrs by sulforhodamine B assay relative to control
[15] = tested on: SK-MEL-28; assay: Growth inhibition of human SK-MEL-28 cells at 10^-5 M incubated for 48 hrs by sulforhodamine B assay relative to control
[16] = tested on: MDA-MB-435; assay: Growth inhibition of human MDA-MB-435 cells at 10^-5 M incubated for 48 hrs by sulforhodamine B assay relative to control
[17] = tested on: Aspergillus fumigatus; assay: Antifungal activity against Aspergillus fumigatus after 24 hrs by serial dilution method
[18] = tested on: Hs-578T; assay: Growth inhibition of human Hs 578T cells at 10^-5 M incubated for 48 hrs by sulforhodamine B assay relative to control
[19] = tested on: OVCAR-4; assay: Growth inhibition of human OVCAR4 cells at 10^-5 M incubated for 48 hrs by sulforhodamine B assay relative to control
[20] = tested on: SK-OV-3; assay: Growth inhibition of human SKOV3 cells at 10^-5 M incubated for 48 hrs by sulforhodamine B assay relative to control
[21] = tested on: NCI/ADR-RES; assay: Growth inhibition of human NCI-ADR-RES cells at 10^-5 M incubated for 48 hrs by sulforhodamine B assay relative to control
[22] = tested on: SR; assay: Growth inhibition of human SR cells at 10^-5 M incubated for 48 hrs by sulforhodamine B assay relative to control
[23] = tested on: M14; assay: Growth inhibition of human M14 cells at 10^-5 M incubated for 48 hrs by sulforhodamine B assay relative to control
[24] = tested on: UACC-62; assay: Growth inhibition of human UACC62 cells at 10^-5 M incubated for 48 hrs by sulforhodamine B assay relative to control
[25] = tested on: HL-60(TB); assay: Growth inhibition of human HL-60(TB) cells at 10^-5 M incubated for 48 hrs by sulforhodamine B assay relative to control
[26] = tested on: UO-31; assay: Growth inhibition of human UO31 cells at 10^-5 M incubated for 48 hrs by sulforhodamine B assay relative to control
[27] = tested on: TK-10; assay: Growth inhibition of human TK10 cells at 10^-5 M incubated for 48 hrs by sulforhodamine B assay relative to control
[28] = tested on: COLO 205; assay: Growth inhibition of human COLO205 cells at 10^-5 M incubated for 48 hrs by sulforhodamine B assay relative to control
[29] = tested on: Aspergillus fumigatus; assay: Antifungal activity against Aspergillus fumigatus at 100 ug/ml by disc diffusion method; settings: read-out: IZ
[30] = tested on: SF-539; assay: Growth inhibition of human SF539 cells at 10^-5 M incubated for 48 hrs by sulforhodamine B assay relative to control
[31] = tested on: HCC 2998; assay: Growth inhibition of human HCC2998 cells at 10^-5 M incubated for 48 hrs by sulforhodamine B assay relative to control
[32] = tested on: OVCAR-5; assay: Growth inhibition of human OVCAR5 cells at 10^-5 M incubated for 48 hrs by sulforhodamine B assay relative to control
[33] = tested on: SK-MEL-2; assay: Growth inhibition of human SK-MEL-2 cells at 10^-5 M incubated for 48 hrs by sulforhodamine B assay relative to control
[34] = tested on: OVCAR-8; assay: Growth inhibition of human OVCAR8 cells at 10^-5 M incubated for 48 hrs by sulforhodamine B assay relative to control
[35] = tested on: K562; assay: Growth inhibition of human K562 cells at 10^-5 M incubated for 48 hrs by sulforhodamine B assay relative to control
[36] = tested on: T47D; assay: Growth inhibition of human T47D cells at 10^-5 M incubated for 48 hrs by sulforhodamine B assay relative to control
[37] = tested on: LOX IMVI; assay: Growth inhibition of human LOXIMVI cells at 10^-5 M incubated for 48 hrs by sulforhodamine B assay relative to control
[38] = tested on: MCF7; assay: Growth inhibition of human MCF7 cells at 10^-5 M incubated for 48 hrs by sulforhodamine B assay relative to control
[39] = tested on: Candida albicans; assay: Antifungal activity against Candida albicans after 24 hrs by serial dilution method
[40] = tested on: Candida albicans; assay: Antifungal activity against Candida albicans at 100 ug/ml by disc diffusion method; settings: read-out: IZ
[41] = tested on: SK-MEL-5; assay: Growth inhibition of human SK-MEL-5 cells at 10^-5 M incubated for 48 hrs by sulforhodamine B assay relative to control
[42] = tested on: NCI-H460; assay: Growth inhibition of human NCI-H460 cells at 10^-5 M incubated for 48 hrs by sulforhodamine B assay relative to control
[43] = tested on: EKVX; assay: Growth inhibition of human EKVX cells at 10^-5 M incubated for 48 hrs by sulforhodamine B assay relative to control
[44] = tested on: 786-0; assay: Growth inhibition of human 786-0 cells at 10^-5 M incubated for 48 hrs by sulforhodamine B assay relative to control
[45] = tested on: SNB-75; assay: Growth inhibition of human SNB75 cells at 10^-5 M incubated for 48 hrs by sulforhodamine B assay relative to control

Fc1ccc2nc(Cl)c(Cn3nnnc3CSc3ccccc3)cc2c1
growth inhibition (GI) [1]: Active
growth inhibition (GI) [2]: Active
growth inhibition (GI) [3]: Active
growth inhibition (GI) [4]: Active
growth inhibition (GI) [5]: Active
growth inhibition (GI) [6]: Active
growth inhibition (GI) [7]: Active
growth inhibition (GI) [8]: Active
growth inhibition (GI) [9]: Active
growth inhibition (GI) [10]: Active
growth inhibition (GI) [11]: Active
growth inhibition (GI) [12]: Active
growth inhibition (GI) [13]: Active
growth inhibition (GI) [14]: Active
growth inhibition (GI) [15]: Active
growth inhibition (GI) [16]: Active
MIC [17]: 2.5 µg/mL (≈ 6.48 µM)
growth inhibition (GI) [18]: Active
growth inhibition (GI) [19]: Active
growth inhibition (GI) [20]: Active
growth inhibition (GI) [21]: Active
growth inhibition (GI) [22]: Active
growth inhibition (GI) [23]: Active
growth inhibition (GI) [24]: Active
growth inhibition (GI) [25]: Active
growth inhibition (GI) [26]: Active
growth inhibition (GI) [27]: Active
growth inhibition (GI) [28]: Active
zone of inhibition at 100 µg/mL [29]: 14 mm
growth inhibition (GI) [30]: Active
growth inhibition (GI) [31]: Active
growth inhibition (GI) [32]: Active
growth inhibition (GI) [33]: Active
growth inhibition (GI) [34]: Active
growth inhibition (GI) [35]: Active
growth inhibition (GI) [36]: Active
growth inhibition (GI) [37]: Active
growth inhibition (GI) [38]: Active
MIC [39]: 50 µg/mL (≈ 130 µM)
zone of inhibition at 100 µg/mL [40]: 13 mm
growth inhibition (GI) [41]: Active
growth inhibition (GI) [42]: Active
growth inhibition (GI) [43]: Active
growth inhibition (GI) [44]: Active
growth inhibition (GI) [45]: Active

Fc1ccc2nc(Cl)c(Cn3nnc(Cc4ccccc4)n3)cc2c1
growth inhibition (GI) [1]: Active
growth inhibition (GI) [2]: Active
growth inhibition (GI) [3]: Active
growth inhibition (GI) [4]: Active
growth inhibition (GI) [5]: Active
growth inhibition (GI) [6]: Active
growth inhibition (GI) [7]: Active
growth inhibition (GI) [8]: Active
growth inhibition (GI) [9]: Active
growth inhibition (GI) [10]: Active
growth inhibition (GI) [11]: Active
growth inhibition (GI) [12]: Active
growth inhibition (GI) [13]: Active
growth inhibition (GI) [14]: Active
growth inhibition (GI) [15]: Active
growth inhibition (GI) [16]: Active
MIC [17]: 25 µg/mL (≈ 70.7 µM)
growth inhibition (GI) [18]: Active
growth inhibition (GI) [19]: Active
growth inhibition (GI) [20]: Active
growth inhibition (GI) [21]: Active
growth inhibition (GI) [22]: Active
growth inhibition (GI) [23]: Active
growth inhibition (GI) [24]: Active
growth inhibition (GI) [25]: Active
growth inhibition (GI) [26]: Active
growth inhibition (GI) [27]: Active
growth inhibition (GI) [28]: Active
zone of inhibition at 100 µg/mL [29]: 15 mm
growth inhibition (GI) [30]: Active
growth inhibition (GI) [31]: Active
growth inhibition (GI) [32]: Active
growth inhibition (GI) [33]: Active
growth inhibition (GI) [34]: Active
growth inhibition (GI) [35]: Active
growth inhibition (GI) [36]: Active
growth inhibition (GI) [37]: Active
growth inhibition (GI) [38]: Active
MIC [39]: 25 µg/mL (≈ 70.7 µM)
zone of inhibition at 100 µg/mL [40]: 12 mm
growth inhibition (GI) [41]: Active
growth inhibition (GI) [42]: Active
growth inhibition (GI) [43]: Active
growth inhibition (GI) [44]: Active
growth inhibition (GI) [45]: Active
